According to US7097992B2, “Uses of human UDP-glucuronosyltransferase 2B7 to detect and treat cancer” (priority 2001, dated 2006):

How the values were obtained:
[1] = biological target: T1, recombinant UDP-glucuronosyltransferase 2B7 (Homo sapiens, UniProt P16662); assay: In vitro glucuronidation of lysophosphatidic acids by recombinant UGT2B7 expressed in HK293 cells; assay type: in vitro ADME; details: for Glucuronidation by UGT2B7 (in words): recombinant UGT2B7, FIG. 9A
T1 construct: made in house
T1 sequence (P16662 24-529): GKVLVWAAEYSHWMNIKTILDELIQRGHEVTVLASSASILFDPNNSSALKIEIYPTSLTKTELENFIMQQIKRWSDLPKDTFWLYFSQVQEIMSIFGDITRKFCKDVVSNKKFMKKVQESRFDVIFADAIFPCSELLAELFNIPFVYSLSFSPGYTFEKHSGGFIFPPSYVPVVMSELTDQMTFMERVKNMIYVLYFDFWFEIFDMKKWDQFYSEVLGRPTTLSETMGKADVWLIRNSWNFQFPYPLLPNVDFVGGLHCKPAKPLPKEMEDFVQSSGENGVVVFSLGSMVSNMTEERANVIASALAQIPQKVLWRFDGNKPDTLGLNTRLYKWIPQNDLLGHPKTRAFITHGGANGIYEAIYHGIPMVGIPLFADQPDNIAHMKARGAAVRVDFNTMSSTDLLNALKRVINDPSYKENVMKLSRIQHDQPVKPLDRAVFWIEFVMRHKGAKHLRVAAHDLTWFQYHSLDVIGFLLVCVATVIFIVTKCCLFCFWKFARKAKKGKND
Description: (§1) Reactions with substrates were run in duplicates.
(§2) Lysophosphatidic acid (LPA) stimulates lysophosphatidic acid receptors which in turn activate PKC and Ras-MAPK signalling pathways. Lysophosphatidic acid is a lipid second messenger involved in progression of malignant ovarian cancer. Cellular effects of lysophosphatidic acid accumulation include stimulation of cell proliferation, inhibition of apoptosis and increased invasiveness of cancer cells. It was hypothesized that anti-proliferative activity of UDP-glucuronosyltransferase 2B7 in the ovarian cancer cell model described above may be associated with inactivation of lysophosphatidic acid through glucuronidation. Thus, in vitro glucuronidation experiments on three different lysophosphatidic acid compounds (FIG. 10) was conducted using human liver microsomes and a recombinant UDP-glucuronosyltransferase 2B7 expressed in HK293 cells.

[2] = system: human liver microsomes; assay: In vitro glucuronidation of lysophosphatidic acids by human liver microsomes; assay type: in vitro ADME; details: for Glucuronidation by human liver microsomes (in words): FIG. 9A
Description: as §1, §2

Glucuronidation by UGT2B7 (in words) [1] | Specific activity of glucuronidation ([1]; recombinant UGT2B7 expressed in HK293 cells) [pmol/min/mg] | Specific activity of glucuronidation [2] [pmol/min/mg] | Glucuronidation by human liver microsomes (in words) [2] | Compound
actively glucuronidated | 250 | 560 | same activity profile | CCCCCCCC/C=C\CCCCCCCC(=O)OCC(O)COP(=O)(O)O (centres unmarked) [oleoyl-lysophosphatidic acid]
not | – | – | same activity profile | CCCCCCCCCCCCCCCC(=O)OC[C@@H](O)COP(=O)(O)O [palmitoyl-lysophosphatidic acid]
not | – | – | same activity profile | CCCCCCCCCCCCCCCCCC(=O)OC[C@@H](O)COP(=O)(O)O [stearoyl-lysophosphatidic acid]
